For 37 compounds, LC retention time results are on record in the RepoRT retention time repository.

The data set in a line: HILIC, Waters Atlantis Premier BEH Z-HILIC, 100 × 2.1 mm, 1.7 µm, 40 °C, 0.15 mL/min, estimated dead time 1.5 min; A: water + 20 mM ammonium carbonate + 5 µM medronic acid; B: 10% water + 90% acetonitrile + 2 mM ammonium carbonate + 0.5 µM medronic acid; gradient (min/%B) 0/90 18/55 18.1/20 21.5/20 22/90 23.5/90 25.5/90. As to conditions: stereoisomer not certain.

Regarding `O=C(O)CCC(=O)C(=O)O` [2-Oxoglutaric acid], the LC retention time was 8.68 min. As for `O=C(O)CCC(O)C(=O)O` (configuration not stated) [2-hydroxy glutaric acid], the LC retention time is 9.22 min.

In the case of `Nc1ncnc2c1ncn2C1OC(COP(=O)(O)OP(=O)(O)O)C(O)C1O` (configuration not stated) [ADP], the LC retention time was 11.1 min. Then `Nc1ncnc2c1ncn2C1OC(COP(=O)(O)O)C(O)C1O` (configuration not stated) [AMP], with 9.07 min. The same measure for `Nc1ncnc2c1ncn2C1OC(COP(=O)(O)OP(=O)(O)OP(=O)(O)O)C(O)C1O` (configuration not stated) [ATP]: 12.9 min. The same measure for `CC(=O)SCCNC(=O)CCNC(=O)C(O)C(C)(C)COP(=O)(O)OP(=O)(O)OCC1OC(n2cnc3c(N)ncnc32)C(O)C1OP(=O)(O)O` (configuration not stated) [Acetyl-CoA]: 10.1 min; for `Nc1ncnc2c1ncn2C1OC(CO)C(O)C1O` (configuration not stated) [Adenosine]: 3.18 min. For the compound `NC(N)=NCCCC(N)C(=O)O` (configuration not stated) [Arginine], the LC retention time was 18.4 min. Then `O=C(O)CCCCC1SCC2NC(=O)NC21` (configuration not stated) [Biotin], with 4.58 min; and `C[N+](C)(C)CC(O)CC(=O)[O-]` (configuration not stated) [Carnitine], with 9.89 min; and `O=C(O)CC(O)(CC(=O)O)C(=O)O` [Citric acid], with 12.8 min.

Consider `CC(C)(COP(=O)(O)OP(=O)(O)OCC1OC(n2cnc3c(N)ncnc32)C(O)C1OP(=O)(O)O)C(O)C(=O)NCCC(=O)NCCS` (configuration not stated) [CoenzymeA], for which the LC retention time is 11.8 min. The same measure for `Cc1cc2nc3c(=O)[nH]c(=O)nc-3n(CC(O)C(O)C(O)COP(=O)(O)OP(=O)(O)OCC3OC(n4cnc5c(N)ncnc54)C(O)C3O)c2cc1C` (configuration not stated) [FAD]: 7.03 min. As for `O=C(CO)C(O)C(O)C(O)COP(=O)(O)O` (configuration not stated) [Fructose 6-phosphate], the LC retention time was 10.8 min. On to `O=P(O)(O)OCC1OC(O)(COP(=O)(O)O)C(O)C1O` (configuration not stated) [Fructose-1,6-bisphosphate], for which the LC retention time was 14.8 min. Take `Nc1nc2c(ncn2C2OC(COP(=O)(O)OP(=O)(O)OP(=O)(O)O)C(O)C2O)c(=O)[nH]1` (configuration not stated) [GTP]: the LC retention time was 15.3 min. Turning to `O=P(O)(O)OCC1OC(O)C(O)C(O)C1O` (configuration not stated) [Glucose-6-phosphate], the LC retention time is 11.7 min.

Turning to `NC(CCC(=O)O)C(=O)O` (configuration not stated) [Glutamic acid], the LC retention time was 9.23 min. On to `NC(=O)CCC(N)C(=O)O` (configuration not stated) [Glutamine], for which the LC retention time was 10.3 min. Consider `O=P(O)(O)OCC(O)CO` (configuration not stated) [Glycerol-3-phosphate], for which the LC retention time was 9.92 min. The same measure for `OCC1OC(O)C(O)C(O)C1O` (configuration not stated) [Hexose]: 7.41 min. `O=C(O)CC(C(=O)O)C(O)C(=O)O` (configuration not stated) [Isocitric acid]: the LC retention time is 12.8 min. For the compound `CCC(C)C(N)C(=O)O` (configuration not stated) [Isoleucine], the LC retention time is 6.5 min.

As to `CC(O)C(=O)O` (configuration not stated) [Lactic Acid], the LC retention time was 3.15 min.

Turning to `CC(C)CC(N)C(=O)O` (configuration not stated) [Leucine], the LC retention time is 6.22 min. Then `NCCCCC(N)C(=O)O` (configuration not stated) [Lysine], with 18.6 min; and `NC(=O)C1=CN(C2OC(COP(=O)(O)OP(=O)(O)OCC3OC(n4cnc5c(N)ncnc54)C(O)C3O)C(O)C2O)C=CC1` (configuration not stated) [NADH], with 8.31 min; and `NC(=O)C1=CN(C2OC(COP(=O)(O)OP(=O)(O)OCC3OC(n4cnc5c(N)ncnc54)C(OP(=O)(O)O)C3O)C(O)C2O)C=CC1` (configuration not stated) [NADPH], with 13.3 min. Then `NC(=O)c1ccc[n+](C2OC(COP(=O)(O)OP(=O)(O)OCC3OC(n4cnc5c(N)ncnc54)C(OP(=O)(O)O)C3O)C(O)C2O)c1` (configuration not stated) [NADP], with 13.1 min; and `NC(=O)c1ccc[n+](C2OC(COP(=O)(O)OP(=O)(O)OCC3OC(n4cnc5c(N)ncnc54)C(O)C3O)C(O)C2O)c1` (configuration not stated) [NAD], with 9.49 min. As to `C=C(OP(=O)(O)O)C(=O)O` [PEP], the LC retention time is 12.9 min. `O=C(O)C(CO)OP(=O)(O)O` (configuration not stated) [Phosphoglyceric acid A]: the LC retention time was 12.7 min. On to `O=C(O)CCC(=O)O` [Succinic Acid], for which the LC retention time was 9.23 min.

With `O=C(CO)COP(=O)(O)O` [Triose phosphate], the LC retention time is 9.78 min. For the compound `CC(=O)NC1C(OP(=O)(O)OP(=O)(O)OCC2OC(n3ccc(=O)[nH]c3=O)C(O)C2O)OC(CO)C(O)C1O` (configuration not stated) [UDP-GlcNAc], the LC retention time is 9.52 min.

Take `CCC(=O)OC(CC(=O)[O-])C[N+](C)(C)C` (configuration not stated) [carnitine-C3]: the LC retention time was 6.42 min. With `O=C1CC(C(=O)O)NC(=O)N1` (configuration not stated) [dihydroorotic acid], the LC retention time is 3.92 min.
